In patent US10364226B2, “Pyridazinone compounds and uses thereof” (priority 2013, dated 2019):

Experiments:
[1] = tested on: Influenza strain A549 A/WSN/33 (H1N1); test: Influenza Antiviral Assay; format: cell-based, Influenza A virus; conditions: Influenza A virus, A549, 20 h, neuraminidase fluorescence readout, read-out: % Inhibition
EN PA = EN PA (Influenza A virus, UniProt P15659); test: EN PA FRET Inhibition Assay; format: biochemical; conditions: read-out: Potency

SMILES | EC50 [1] [µM] | IC50 (EN PA) [µM]
O=C(NCc1ccccc1)c1nn(CC2(c3ccncc3)CCCC2)cc(O)c1=O [Compound 825] | < 20 | 0.1 to 1
O=C1NCCCCCc2ccc3ccn(c3c2)C2(CCCC2)Cn2cc(O)c(=O)c1n2 [Compound 826] | < 20 | < 0.1
CCC(=O)c1nn(CC2(n3cc(C)c4cccnc43)CCCC2)cc(O)c1=O [Compound 827] | < 20 | < 0.1
CCNC(=O)c1nn(CC2(c3ccc4ccccc4c3)CCCC2)cc(O)c1=O [Compound 828] | < 20 | < 0.1
CC(C)(C)NC(=O)c1nn(CC2(c3ccc4ccccc4c3)CCCC2)cc(O)c1=O [Compound 829] | < 20 | < 0.1
CNC(=O)c1nn(CC2(c3cn(C)c4ccccc34)CCCC2)cc(O)c1=O [Compound 830] | > 100 | 0.1 to 1
CNC(=O)c1nn(CC2(c3c[nH]c4ccccc34)CCCC2)cc(O)c1=O [Compound 831] | > 100 | 0.1 to 1
O=C(NCc1ccccc1)c1nn(CC2(c3cncnc3)CCCC2)cc(O)c1=O [Compound 832] | > 100 | < 0.1
Cc1cn(C2(Cn3cc(O)c(=O)c(C(=O)C(C)C)n3)CCCC2)c2ncccc12 [Compound 833] | < 20 | < 0.1
CNC(=O)c1nn(CCN(c2ccccc2)c2ccccc2)cc(O)c1=O [Compound 834] | > 100 | 0.1 to 1
CNC(=O)c1nn(CCn2c3ccccc3c3ccccc32)cc(O)c1=O [Compound 835] | > 100 | 0.1 to 1
O=C1NCC/C=C/Cc2ccc3c(C(=O)C(F)(F)F)cn(c3c2)C2(CCCC2)Cn2cc(O)c(=O)c1n2 [Compound 836] | > 100 | ≥ 1
CNC(=O)c1nn(CCC(c2ccccc2)c2ccccc2)cc(O)c1=O [Compound 837] | > 100 | 0.1 to 1
CNC(=O)c1nn(CCN2c3ccccc3C=Cc3ccccc32)cc(O)c1=O [Compound 838] | < 20 | < 0.1
CNC(=O)c1nn(CCC2c3ccccc3CCc3ccccc32)cc(O)c1=O [Compound 839] | > 100 | 0.1 to 1
CNC(=O)c1nn(CCN2c3ccccc3CCc3ccccc32)cc(O)c1=O [Compound 840] | > 100 | 0.1 to 1
O=C1NCC/C=C/Cc2ccc3ccn(c3c2)C2(CCCC2)Cn2cc(O)c(=O)c1n2 [Compound 841] | < 20 | 0.1 to 1
CNC(=O)c1nn(CCN2c3ccccc3COc3ccccc32)cc(O)c1=O [Compound 842] | > 100 | 0.1 to 1
CNC(=O)c1nn(CC2(c3ccc4ccccc4n3)CCCC2)cc(O)c1=O [Compound 843] | < 20 | < 0.1
CNC(=O)c1nn(CC2(c3ccc4cnccc4c3)CCCC2)cc(O)c1=O [Compound 844] | < 20 | < 0.1
CNC(=O)c1nn(CC2(c3ccc4ncccc4c3)CCCC2)cc(O)c1=O [Compound 845] | < 20 | < 0.1
CNC(=O)c1nn(CC2(c3cc(C)c4ncccc4c3)CCCC2)cc(O)c1=O [Compound 846] | < 20 | < 0.1
CNC(=O)c1nn(CC2(c3cc(F)c4ncccc4c3)CCCC2)cc(O)c1=O [Compound 847] | > 100 | < 0.1

SMILES | EC50 [1] [µM] | IC50 (EN PA) [µM]
CNC(=O)c1nn(CC2(c3ccc4ccncc4c3)CCCC2)cc(O)c1=O [Compound 848] | > 100 | < 0.1
CNC(=O)c1nn(CC2(c3ccc4cccnc4c3)CCCC2)cc(O)c1=O [Compound 849] | < 20 | < 0.1
CNC(=O)c1nn(CC2(n3ccc4ccccc43)CCCC2)cc(O)c1=O [Compound 850] | < 20 | < 0.1
CNC(=O)c1nn(CC2(n3cc(C)c4cc(Cl)cnc43)CCCC2)cc(O)c1=O [Compound 851] | < 20 | < 0.1
CNC(=O)c1nn(CC2(n3cc(C)c4cccnc43)CCCC2)cc(OCc2ccccc2)c1=O [Compound 852] | > 100 | ≥ 1
CNC(=O)c1nn(CC2(n3ccc4ccc(C)nc43)CCCC2)cc(O)c1=O [Compound 853] | < 20 | < 0.1
CONC(=O)c1nn(CC2(n3cc(C)c4cccnc43)CCCC2)cc(O)c1=O [Compound 854] | < 20 | < 0.1
CNC(=O)c1nn(CC2(n3cnc4cncnc43)CCCC2)cc(O)c1=O [Compound 855] | > 100 | 0.1 to 1
CNC(=O)c1nn(CC2(n3ccc4c(Cl)cccc43)CCCC2)cc(O)c1=O [Compound 856] | < 20 | < 0.1
CNC(=O)c1nn(CC2(n3ccc4c(C)cccc43)CCCC2)cc(O)c1=O [Compound 857] | < 20 | < 0.1
CNC(=O)c1nn(CC2(Cn3cc(C)c4cccnc43)CCCC2)cc(O)c1=O [Compound 858] | > 100 | 0.1 to 1
CNC(=O)c1nn(CC2(n3ccc4c(F)cccc43)CCCC2)cc(O)c1=O [Compound 859] | < 20 | < 0.1
CNC(=O)c1nn(CC2(n3ccc4ccc(Cl)cc43)CCCC2)cc(O)c1=O [Compound 860] | < 20 | < 0.1
CNC(=O)c1nn(CC2(n3ccc4ccc(F)cc43)CCCC2)cc(O)c1=O [Compound 861] | < 20 | < 0.1
CCn1cc(C2(Cn3cc(O)c(=O)c(C(=O)NC)n3)CCCC2)c2ccccc21 [Compound 862] | > 100 | 0.1 to 1
Cc1cn(C2(Cn3cc(O)c(=O)c(C(=O)NC(C)(C)CNC(=O)OC(C)(C)C)n3)CCCC2)c2ncccc12 [Compound 863] | < 20 | 0.1 to 1
CNC(=O)c1nn(CC2(n3ccc4c(C)ccnc43)CCCC2)cc(O)c1=O [Compound 864] | < 20 | < 0.1
Cc1cn(C2(Cn3cc(O)c(=O)c(C(=O)NCCN)n3)CCCC2)c2ncccc12 [Compound 865] | < 20 | < 0.1
CC(C)(CO)NC(=O)c1nn(CC2(n3cc(Cl)c4cccnc43)CCCC2)cc(O)c1=O [Compound 866] | < 20 | < 0.1
CC(C)(CO)NC(=O)c1nn(CC2(n3ccc4cccnc43)CCCC2)cc(O)c1=O [Compound 867] | < 20 | < 0.1
Cc1cn(C2(Cn3cc(O)c(=O)c(C(=O)NC(C)(C)CN)n3)CCCC2)c2ccccc12 [Compound 868] | < 20 | < 0.1
Cc1cn(C2(Cn3cc(O)c(=O)c(C(=O)NCC(C)(C)CNC(=O)OC(C)(C)C)n3)CCCC2)c2ncccc12 [Compound 869] | < 20 | 0.1 to 1
Cc1cn(C2(Cn3cc(O)c(=O)c(C(=O)NCC(C)(C)CN)n3)CCCC2)c2ncccc12 [Compound 870] | 20 to 100 | < 0.1

SMILES | EC50 [1] [µM] | IC50 (EN PA) [µM]
CNC(=O)c1nn(CC2(c3cccc4[nH]ncc34)CCCC2)cc(O)c1=O [Compound 871] | > 100 | < 0.1
CNC(=O)c1nn(CC2(n3ccc4cc(C)cnc43)CCCC2)cc(O)c1=O [Compound 872] | < 20 | < 0.1
O=C1NCCCCCOc2ccc(cc2)C2(CCCC2)Cn2cc(O)c(=O)c1n2 [Compound 873] | > 100 | 0.1 to 1
CCOC(=O)[C@H]1[C@@H]2CC(Cn3cc(O)c(=O)c(C(=O)NC)n3)(n3cc(C)c4cccnc43)C[C@@H]21 (some centres unmarked) [Compound 874] | > 100 | 0.1 to 1
C#Cc1cn(C2(Cn3cc(O)c(=O)c(C(=O)NC)n3)CCCC2)c2ncc(C)cc12 [Compound 875] | < 20 | < 0.1
Cc1cn(C2(Cn3cc(O)c(=O)c(C(=O)NCCNC(=O)OC(C)(C)C)n3)CCCC2)c2ncccc12 [Compound 876] | < 20 | < 0.1
Cc1cn(C2(Cn3cc(O)c(=O)c(C(=O)N4CCOCC4)n3)CCCC2)c2ncccc12 [Compound 877] | > 100 | 0.1 to 1
CNC(=O)c1nn(CC2(c3ccc4cc(C)ccc4c3)CCCC2)cc(O)c1=O [Compound 879] | < 20 | < 0.1
CNC(=O)c1nn(CC2(n3cc(C(=O)NC)c4cccnc43)CCCC2)cc(O)c1=O [Compound 880] | > 100 | < 0.1
CNC(=O)c1nn(CC2(c3cccc4c3cnn4C)CCCC2)cc(O)c1=O [Compound 881] | < 20 | < 0.1
CNC(=O)c1nn(CC2(c3cccc4nn(C)cc34)CCCC2)cc(O)c1=O [Compound 882] | < 20 | < 0.1
CNC(=O)c1nn(CC2(n3cc(C(N)=O)c4cccnc43)CCCC2)cc(O)c1=O [Compound 883] | > 100 | < 0.1
CNC(=O)c1nn(CC2(N3c4ccccc4C=Cc4ccccc43)CCCC2)cc(O)c1=O [Compound 884] | < 20 | < 0.1
CNC(=O)c1nn(CC2(n3cc(C)c4cccnc43)C[C@@H]3[C@@H](CO)[C@@H]3C2)cc(O)c1=O (some centres unmarked) [Compound 885] | > 100 | 0.1 to 1
CNC(=O)c1nn(CC2(n3ccc4cc(OC)cnc43)CCCC2)cc(O)c1=O [Compound 886] | < 20 | < 0.1
CNC(=O)c1nn(CC2(n3cc(Cl)c4cc(Cl)cnc43)CCCC2)cc(O)c1=O [Compound 887] | < 20 | < 0.1
CNC(=O)c1nn(CC2(c3cc(C)c4cccnc4c3)CCCC2)cc(O)c1=O [Compound 888] | < 20 | < 0.1
CNC(=O)c1nn(CC2(c3cc(C)cc4ncccc34)CCCC2)cc(O)c1=O [Compound 889] | < 20 | < 0.1
CNC(=O)c1nn(CC2(c3ccc4cc(C)cnc4c3)CCCC2)cc(O)c1=O [Compound 890] | < 20 | < 0.1
CNC(=O)c1nn(CC2(n3c4c(c5ccccc53)CCC4)CCCC2)cc(O)c1=O [Compound 891] | < 20 | < 0.1
CNC(=O)c1nn(CC2(n3cc(OC)c4cccnc43)CCCC2)cc(O)c1=O [Compound 892] | < 20 | < 0.1
